# According to article PMC3128934, “Substrate Pathways and Mechanisms of Inhibition in the Sulfur Oxygenase Reductase of Acidianus Ambivalens” (Frontiers in Microbiology, 2011):
# Experiments:
# [1] = test system: sulfur oxygenase reductase (SOR); design: method as in Kletzin, [1989]; conditions: ref Kletzin, [1989], cited from earlier work; for oxygenase activity remaining: 1 mM inhibitor; for residual activity for the oxidized reaction products: 0.1 mM inhibitor
# [2] = target: sulfur oxygenase reductase (SOR) H166A mutant (Acidianus ambivalens, UniProt P29082, H166A); assay: biochemical; conditions: for Ki: Ki-value (half-maximal inhibitory concentration), H166A mutant
# Protocol: (§1) Specific activities of the wild type and mutant proteins were determined by incubation of 2–5 μg of purified enzyme/ml of Tris–HCl buffer pH 7.2 containing 2% sulfur and 0.1% of Tween 20 as described previously (Kletzin, [1989]; Urich et al., [2004], [2005b]). Samples were taken at appropriate time points (usually after 0, 2, 4, 6, 8, and 10 min) and the concentration of the products was determined colorimetrically. Specific activities were calculated from the linear increase of product concentrations (Kletzin, [1989]). At least two activity measurements were performed for each mutant using independently purified protein preparations (see below, Table 2). Iron quantification was performed with pure protein preparations using the 2,4,6-tripyridyl-1,3,5-triazine method (TPTZ; Fischer and Price, [1964]). Protein concentrations were determined by the Coomassie Blue method (Bradford, [1976]) or using the BCA Protein Assay Kit (Novagen/Merck, Darmstadt, Germany) according to the manufacturer's instructions. Samples of purified proteins were separated by SDS-PAGE (Schägger and von Jagow, [1987]) and visualized with colloidal Coomassie Blue staining (Roti-Blue; Roth, Karlsruhe, Germany).
# (§2) Zinc inhibition assays of the wild type and mutant proteins were performed by addition of a freshly prepared zinc chloride solution to the reaction buffer in concentrations ranging from 0.01 to 1 mM (Kletzin, [1989]). After addition of the enzyme, the mixture was incubated for 30 min at room temperature before starting the reaction by heating to 85°C and measurement of the specific activities. A zinc/buffer mixture without protein was used as a negative control.
# [3] = target: sulfur oxygenase reductase (SOR) H277A mutant (Acidianus ambivalens, UniProt P29082, H277A); assay: biochemical; conditions: for Ki: Ki-value (half-maximal inhibitory concentration), H277A mutant
# Protocol: as §1, §2
# [4] = target: sulfur oxygenase reductase (SOR) wild type (Acidianus ambivalens, UniProt P29082); assay: biochemical; conditions: Ki-value (half-maximal inhibitory concentration), wild type enzyme, 30 min preincubation at room temperature, reaction at 85°C
# Protocol: as §1, §2
# Chain of sulfur oxygenase reductase (SOR) H277A mutant (P29082 whole entry H277A): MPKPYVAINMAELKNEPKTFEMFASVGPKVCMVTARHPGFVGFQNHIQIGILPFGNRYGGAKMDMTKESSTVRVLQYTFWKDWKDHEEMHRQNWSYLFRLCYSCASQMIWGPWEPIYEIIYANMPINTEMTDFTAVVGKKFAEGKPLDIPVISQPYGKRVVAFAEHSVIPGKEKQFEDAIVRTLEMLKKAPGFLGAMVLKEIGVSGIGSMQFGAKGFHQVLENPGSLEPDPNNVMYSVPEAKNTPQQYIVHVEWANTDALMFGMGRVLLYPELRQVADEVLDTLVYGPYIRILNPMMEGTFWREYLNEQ
# Chain of sulfur oxygenase reductase (SOR) H166A mutant (P29082 whole entry H166A): as the sequence (P29082 whole entry H277A) above, with H166A, A277H counted along it
# Chain of sulfur oxygenase reductase (SOR) wild type (P29082 whole entry): as the sequence (P29082 whole entry H277A) above, with A277H counted along it
structure (smiles),measurement,setting,value
"CCN1C(=O)C=CC1=O [NEM, N-ethylmaleimide]",oxygenase activity remaining,[1],47%
[Zn+2] [zinc chloride],Increase of Ki-value compared to the wild type,[2]; H166A mutant vs wild type,two- to threefold
same,Ki,[2]; oxygenase activity,121 µM
same,Ki,[2]; reductase activity,150 µM
same,Increase of Ki-value compared to the wild type,[3]; H277A mutant vs wild type,two- to threefold
same,Ki,[3]; oxygenase activity,157 µM
same,Ki,[3]; reductase activity,144 µM
same,Ki,[4]; oxygenase activity,45 µM
same,Ki,[4]; reductase activity,39 µM
same,residual activity for the oxidized reaction products,[1],74%
[Hg+2] [Hg^2+],residual activity for the oxidized reaction products,[1],37%
"NC(=O)CI [IAA, iodoacetamide]",oxygenase activity remaining,[1],27%
